# Reference: patent US20240299486A1, “ADDRESSING INJECTION SITE REACTIONS ASSOCIATED WITH THE ADMINISTRATION OF ELAMIPRETIDE” (STEALTH BIOTHERAPEUTICS INC., priority 2022, published 2024)
# Experiments:
# healthy subjects = test: Phase 1 crossover study: self-assessed injection site reactions; format: in vivo, human; details: 60 mg SQ elamipretide with or without the intervention, across all timepoints, all participants, n = 80
# Method: (§1) • This Phase 1, open-label, 6-arm crossover study included 10 healthy subjects ≥18 and ≤65 years of age. • All subjects received 60 mg of SQ elamipretide to alternating quadrants of the abdomen on each of 6 occasions (FIG. 3), with or without the interventions listed in Table 2. • For each treatment arm, ISR clinical and self-assessments were performed pre-elamipretide administration and at 0.5, 1, 2, 4, 6, 12, 24, and 48 hours after each elamipretide dose. • Blood samples for plasma concentrations of elamipretide and its metabolites were also collected pre-dose and at 0.25, 0.5, 1, 2, 4, and 6 hours post-elamipretide dose. • Primary endpoints consisted of comparisons of the grading from the clinical assessments and the self-assessments of each ISR parameter following administration of elamipretide with each separate intervention versus that of elamipretide alone. • Secondary endpoints consisted of comparison of various pharmacokinetic (PK) parameters and adverse events following administration of elamipretide with each separate intervention versus that of elamipretide alone.
# After the screening period (up to 28 days) in this phase 1, open-label, 4-week, 6-part, crossover study, all eligible subjects received 60 mg (0.75 mL) of SC elamipretide to alternating quadrants of the abdomen on each of 6 occasions, with or without potential ISR interventions. The first treatment arm (Arm 1) commenced on Day 1 with administration of elamipretide only, followed by the remaining treatment arms (Arms 2-6) with the following potential mitigations: mometasone furoate, 0.1% ointment, applied once under a hydrocolloid occlusive dressing (DuoDERM Extra Thin) 7 days prior to elamipretide administration (Arm 2); ice application at the elamipretide injection site 5 minutes pre- and post-drug administration (Arm 3); tacrolimus 0.1% ointment applied 15 minutes pre-drug dosing (Arm 4); doxepin 5% cream applied 15 minutes pre-elamipretide administration (Arm 5); and diphenhydramine 50 mg orally taken 2 hours prior to administration (Arm 6). For each treatment arm, blood samples for plasma concentrations of elamipretide and its metabolites were collected pre-dose and at 0.25, 0.5, 1, 2, 4, and 6 hours post-elamipretide dose. Vital signs were recorded pre-dose and at 0.5 and 6 hours post-elamipretide administration. ISR clinical and self-assessments were performed pre-elamipretide administration and at 0.5, 1, 2, 4, 6, 12, 24, and 48 hours after each elamipretide dose. Injection sites were photographed at 0.5, 1, 2, 4, and 12 hours post-elamipretide dose.
# The primary endpoints of this study were comprised of the following efficacy measures: clinical assessments and subject self-assessments. Specifically, the primary endpoints consisted of comparisons of the grading of each ISR parameter following administration of elamipretide with each separate intervention versus the grading of each ISR parameter following administration of elamipretide alone. For clinical assessments, the clinical staff used a standard procedure adapted from the Division of Aids Table for Grading the Severity of Adult and Pediatric Adverse Events to score pain, erythema, induration, and pruritus using a 4-point scale based on severity (0=None, 1=Mild, 2=Moderate, 3=Severe, 4=Potentially Life Threatening). The self-assessments were based on a questionnaire to determine how bothered the patient was following each injection of elamipretide and included the following parameters: pain, burning sensation, cold sensation, itching, redness, swelling, and bruising.
# All statistical analyses were performed using SAS GRID Linux/SAS Studio (Version 9.4, or higher). PK parameters for elamipretide and its metabolites, M1 and M2, were summarized using descriptive statistics.
# [1] = Phase 1 crossover study: pharmacokinetics of elamipretide and metabolites M1, M2; details: human, in vivo, 60 mg
# Method: as §1
# After the screening period (up to 28 days) in this phase 1, open-label, 4-week, 6-part, crossover study, all eligible subjects received 60 mg (0.75 mL) of SC elamipretide to alternating quadrants of the abdomen on each of 6 occasions, with or without potential ISR interventions. […]
# human MRGPRX2 = human MRGPRX2 (Homo sapiens, UniProt Q96LB1); test: cell-based
# Method: (§2) A clonal HEK293 cell line stably expressing human MRGPRX2 and Galpha15 was used for the assay, which was performed using a fluorescent plate reader. Cells were plated at 40,000 cells per well in a glass-bottom 96 well plate 20 hours before the assay. Cells were loaded with N-[4-[6-[(Acetyloxy)methoxy]-2,7-difluoro-3-oxo-3H-xanthen-9-yl]-2-[2-[2-[bis[2-[(acetyloxy)methoxy]-2-oxoethyl]amino]-5-methylphenoxy]ethoxy]phenyl]-N-[2-[(acetyloxy)methoxy]-2-oxoethyl]glycine (acetyloxy)methyl ester (Fluo-4 AM) for 45 minutes at 37° C. and allowed to rest for 30 minutes before use. Baseline fluorescence was calculated as the average of a 30 second read, with data points taken at 5 second intervals. Response was defined as the maximum signal within 90 seconds after addition of elamipretide, subtracted by the baseline fluorescence signal. Concentrations were tested in duplicate and the assay was run 6 times. The curve was calculated as a four-parameter non-linear fit with variable slope. Traces were obtained using the same cell line and same Fluo-4 AM loading protocol but were imaged using a fluorescence microscope using a standard fluorescein isothiocyanate (FITC) filter. Fluorescence for different cells was calculated using region of interest selections.
# A calcium-based readout of receptor activity was used to determine whether elamipretide activates human MRGPRX2 and its mouse ortholog Mrgprb2. This assay is known to be widely used in drug screening and utilized a cell line stably transfected with the receptor along with Galpha15, a promiscuous G protein that couples to the receptor and induced an increase in intracellular calcium when the receptor was activated. Thus, an increase in calcium levels reflected receptor activation. Calcium levels were detected by imaging Fluo-4 (from Fluo-4 AM), a dye that increases in fluorescence when bound to calcium.
# mouse ortholog Mrgprb2 = mouse ortholog Mrgprb2 (Mus musculus, UniProt Q3KNA1); details: HEK293 cells transfected with mouse ortholog Mrgprb2
# Method: as §2
# A calcium-based readout of receptor activity was used to determine whether elamipretide activates human MRGPRX2 and its mouse ortholog Mrgprb2. […]
# MRGPRX2 receptor = molecular target: T1, MRGPRX2 receptor (Homo sapiens, UniProt Q96LB1); test: Fluo-4 calcium assay in MRGPRX2 expressing Chem-1 cells; format: cell-based; details: Chem-1 cells, Fluo-4
# T1 construct: host or cells: Chem-1 cells (G418-selected)
# T1 sequence (Q96LB1 1-330): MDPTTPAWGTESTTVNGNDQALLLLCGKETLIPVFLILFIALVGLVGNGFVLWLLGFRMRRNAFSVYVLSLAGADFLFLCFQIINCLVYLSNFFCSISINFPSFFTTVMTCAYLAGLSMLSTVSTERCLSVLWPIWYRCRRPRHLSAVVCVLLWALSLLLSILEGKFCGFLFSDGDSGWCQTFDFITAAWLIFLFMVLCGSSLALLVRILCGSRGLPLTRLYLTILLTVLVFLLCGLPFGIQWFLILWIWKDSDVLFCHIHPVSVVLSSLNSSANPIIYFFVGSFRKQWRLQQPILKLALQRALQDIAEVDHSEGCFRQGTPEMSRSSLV
# [2] = test system: control (non-MRGPRX2 expressing) Chem-1 cells; details: parent Chem-1 cells, Fluo-4
# Method: MRGPRX2 expressing and control (non-MRGPRX2 expressing) Chem-1 cells lines were obtained from Discovery Services, EuroFins. Cells were cultured in Dulbecco's Modified Eagle Medium (DMEM) high glucose medium (4.5 g/L) with 10% fetal bovine serum (FBS), non-essential amino acids, and N-2-hydroxyethylpiperazine-N′-2-ethanesulfonic acid (HEPES) buffer (pH 7.0-7.6). Geneticin (G418) was used for selection of MRGPRX2-expressing Chem-1 cells. Cells were maintained at 37° C. at 5% CO2. Cells were seeded to a glass bottom 96-well plates at a density of 50,000 per well (Cellvis). Cells were loaded with Fluo-4 AM for 30 minutes at 37° C. at a concentration of 2.5 μM. Cells were washed once with Dulbecco's phosphate buffered saline (DPBS). Cells were rested at room temperature for 30 minutes before use and washed with DPBS. Cells were resuspended in 50 μl phosphate buffered saline (PBS) with calcium and magnesium. […] Plates were read immediately with a Biotek plate reader. Readings were taken every 6 seconds for 2 minutes.
# rats = details: subcutaneous administration, long term toxicology studies
# Sequence of mouse ortholog Mrgprb2 (Q3KNA1 whole entry): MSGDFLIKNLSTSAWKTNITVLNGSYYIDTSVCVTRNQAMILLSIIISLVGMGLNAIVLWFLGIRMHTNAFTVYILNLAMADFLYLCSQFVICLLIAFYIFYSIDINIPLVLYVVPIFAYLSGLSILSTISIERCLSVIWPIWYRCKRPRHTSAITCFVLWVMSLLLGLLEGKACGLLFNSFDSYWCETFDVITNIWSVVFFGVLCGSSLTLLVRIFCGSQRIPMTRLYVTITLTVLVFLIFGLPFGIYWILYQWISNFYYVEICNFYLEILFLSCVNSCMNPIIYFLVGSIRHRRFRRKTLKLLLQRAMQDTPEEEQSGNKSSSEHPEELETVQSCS
smiles,measurement,setting,value
"Cc1cc(O)cc(C)c1C[C@H](NC(=O)[C@H](N)CCCNC(=N)N)C(=O)N[C@@H](CCCCN)C(=O)N[C@@H](Cc1ccccc1)C(N)=O (stereo in doubt) [Elamipretide, H-D-Arg-2′,6′Dmt-Lys-Phe-NH2]","Self-assessed Bruising, (%) of Reported Reactions",healthy subjects,(6.3) %
same,"Self-assessed Bruising, Number of Reported Reactions",healthy subjects,5
same,"Self-assessed Burning sensation, (%) of Reported Reactions",healthy subjects,(16.3) %
same,"Self-assessed Burning sensation, Number of Reported Reactions",healthy subjects,13
same,"Self-assessed Cold Sensation, Number of Reported Reactions",healthy subjects,0.0
same,"Self-assessed Itching, (%) of Reported Reactions",healthy subjects,(20.0) %
same,"Self-assessed Itching, Number of Reported Reactions",healthy subjects,16
same,"Self-assessed Pain, (%) of Reported Reactions",healthy subjects,(13.8) %
same,"Self-assessed Pain, Number of Reported Reactions",healthy subjects,11
same,"Self-assessed Redness, (%) of Reported Reactions",healthy subjects,(30.0) %
same,"Self-assessed Redness, Number of Reported Reactions",healthy subjects,24
same,"Self-assessed Swelling, (%) of Reported Reactions",healthy subjects,(22.5) %
same,"Self-assessed Swelling, Number of Reported Reactions",healthy subjects,18
same,Tmax,[1],30 min
same,EC50,human MRGPRX2,98.5 µM
same,EC50 relative to the typical elamipretide injection concentration of 40 mg/mL (times lower),human MRGPRX2,~600 times
same,Fluo-4 fluorescence after elamipretide exposure,human MRGPRX2; HEK293 cells transfected with MRGPRX2,increased
same,Fluo-4 fluorescence after elamipretide exposure,mouse ortholog Mrgprb2,increased
same,activation of the MRGPRX2 expressing cells (calcium mobilization),MRGPRX2 receptor,dose dependent activation
same,effect on cells lacking the MRGPRX2 receptor (calcium mobilization),[2],no effect
same,injection site reactions,rats,some being severe at the higher dose levels
